Test results reported in publication PMC12006171, “Marsupial cathelicidins: characterization, antimicrobial activity and evolution in this unique mammalian lineage” (Frontiers in Immunology, 2025).
Read-outs that look alike come from different tables or passages of the source. Where a SMILES comes first, the peptide text is derived from it.

Columns and labels:
[1] = tested on: Streptococcus agalactiae ATCC 12386; assay: microbe, parasite or virus in culture; format: cell-based; details: ATCC 12386; read-out: MIC S. agalactiae ATCC
Method in brief: (§1)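 Broth microdilution per CLSI M07-A/M26A; cathelicidin peptides tested at final 64-0.125μg/mL, inoculum 5 x 10^5 CFU/mL, 35°C for 20–24 hours. Bacteria in MHB (±10% lysed horse blood, ±Ca/Mg), yeasts in RPMI-1640 MOPS. MIC = lowest concentration preventing visible growth.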

[2] = tested on: Streptococcus pneumoniae ATCC 49619; assay: microbe, parasite or virus in culture; format: cell-based; details: ATCC 49619; read-out: MIC S. pneumoniae ATCC
Method in brief: as §1

[3] = tested on: Streptococcus agalactiae Clinical isolate - animal; assay: microbe, parasite or virus in culture; format: cell-based; details: clinical isolate - animal; read-out: MIC S. agalactiae
Method in brief: as §1

S. aureus ATCC 29213 = assay: Killing kinetics (time kill assay); format: cell-based, Staphylococcus aureus; details: MHB, 35°C, sampled 1-24 hours, n = 2
Experimental: The killing kinetics assay was conducted using mid-logarithmic phase cultures of E. coli ATCC 25922 and S. aureus ATCC 29213 in MHB. Cultures were adjusted to a 0.5 McFarland standard, diluted in MHB, and then 100µL was added to each culture tube containing 10mL pre-warmed MHB to give a final inoculum concentration of 5 x 10^5 CFU/mL. A sterility control of 100uL MHB, growth control (no cathelicidin), and vehicle control (DMSO) were also included. Furthermore, 10uL was immediately removed from the growth control tube, diluted 1/1000 in saline and 100µL plated onto MHA in duplicate to confirm inoculum density. To establish colony counts from 0 hours of cathelicidin treatment, 200µL was removed from each culture tube and serially diluted ten-fold in saline from 10^0 to […] in a total volume of 200µL. Then, 10µL of each dilution was spotted onto MHA in duplicate, which were incubated at 35°C for 24 hours.
All culture tubes were then incubated at 35°C static. At 1, 2, 4, 6, 8, 10, 12, and 24 hours post-cathelicidin treatment, 200µL was removed from each culture tube for dilution and plated on MHA as described above. […] Counts of duplicates were averaged, and the log10 CFU/mL graphed against time. This was used as input for one-way ANOVA (p < 0.05) followed by Dunnett’s post hoc test.

[4] = tested on: six bacteria (S. aureus, E. coli, P. aeruginosa; ATCC and clinical isolate); format: cell-based; details: synthesized mature peptide; antimicrobial screening Phase I; Y/N summary over bacteria tested, broth microdilution
Method in brief: (§2)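 Broth microdilution per CLSI M07-A/M26A: DMSO-solubilized cathelicidin mature peptides at final 64-0.125μg/mL in Mueller Hinton broth (with or without 10% lysed horse blood, with or without calcium/magnesium), final inoculum 5 x 10^5 CFU/mL, 35°C for 20–24 hours. MIC = lowest concentration preventing visible growth.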

[5] = tested on: three fungi (Candida krusei, Candida parapsilosis, Candida albicans); assay: Antifungal screening, summary over the panel of fungi (broth microdilution); format: cell-based; details: synthesized mature peptide; antimicrobial screening Phase I; Y/N summary over fungi tested, broth microdilution
Experimental: Antimicrobial testing of 78 cathelicidin MPs was performed in two phases as outlined in Figure 1 . In phase I, 40 peptides (27 extant and 13 ancestral) were selected for testing based on rank (outlined above) and similarity to published marsupial cathelicidins with known antimicrobial activity ([33], [41]–[43]). These peptides were tested against nine bacteria (Staphylococcus aureus ATCC 29213 and clinical isolate, Escherichia coli ATCC 25922 and clinical isolate, Pseudomonas aeruginosa ATCC 27853 and clinical isolate, Streptococcus agalactiae ATCC 12386 and clinical isolate, Streptococcus pneumoniae ATCC 49619) and three fungi (Candida krusei ATCC 6258, Candida parapsilosis ATCC 22019, and Candida albicans clinical isolate). Details regarding these strains are available in Supplementary Table 4 . The antimicrobial activity of cathelicidins was determined as the minimum inhibitory concentration (MIC), which was the lowest concentration of cathelicidin that prevented visible bacterial or fungal growth, relative to the negative control. […] Minimum bactericidal concentration (MBC) and/or minimum fungicidal concentration (MFC) was conducted to determine microbicidal versus static action. Activity against S. aureus ATCC, E. coli ATCC, and Pseudomonas aeruginosa ATCC 27853 was examined in the presence of divalent cations to determine the impact of inhibitors.
Antimicrobial activity was determined using a broth microdilution susceptibility assay in 96 well polypropylene plates according to Clinical Laboratory Standards Institute guidelines M07-A and M26A as described previously ([33], [42], [43]). The bacterial and fungal isolates from humans and animals used in this study are outlined in Supplementary Table 4 . Only yeasts were included in the panel of fungi as they have been used in the susceptibility testing of eutherian ([3], [81]–[83]) and other marsupial cathelicidins previously ([33], [42], [43]). Cathelicidin mature peptides were solubilized in DMSO and serially diluted in duplicate from 128-0.25μg/mL in a final volume of 100µL. For bacteria, cathelicidins were diluted in Mueller Hinton Broth (MHB) with or without 10% lysed horse blood, and with (MH II B) or without (MHB) calcium and magnesium cations. For fungi, cathelicidins were diluted in Roswell Park Memorial Institute medium (RPMI)-1640 MOPS. Ampicillin or tetracycline were included as a positive control for Gram-positive and -negative bacteria respectively, while amphotericin B was used for fungi. A media-only negative control and growth control (no cathelicidin) were also included on each plate. Bacteria were sub-cultured on Muller Hinton agar (MHA) or sheep blood agar (BA), and fungi on Sabouraud dextrose agar (SAB), 20–24 hours prior to the test. Colonies were suspended in saline, the concentration adjusted to a 0.5 McFarland standard, and then diluted in media to a concentration of 1.0 x 10^6 cells/mL. Then, 100μL was added to each well of the cathelicidin dilution plate, giving a final inoculum density of 5 x 10^5 CFU/mL and cathelicidin concentration of 64-0.125μg/mL. Colony counts were performed on MHA/BA/SAB to confirm inoculum density. All plates were incubated at 35°C for 20–24 hours, depending on the strain.
Colonies were counted and compared to the colony count of the starting inoculum.

[6] = tested on: Pseudomonas aeruginosa ATCC 27853; assay: microbe, parasite or virus in culture; format: cell-based; details: ATCC 27853; read-out: MIC P. aeruginosa ATCC
Method in brief: as §2

[7] = tested on: Escherichia coli ATCC 25922; assay: microbe, parasite or virus in culture; format: cell-based
Method in brief: as §2

[8] = tested on: Staphylococcus aureus ATCC 29213; assay: microbe, parasite or virus in culture; format: cell-based
Method in brief: as §2

[9] = tested on: Escherichia coli clinical isolate - animal; assay: microbe, parasite or virus in culture; format: cell-based
Method in brief: as §2

[10] = tested on: Pseudomonas aeruginosa clinical isolate - animal; assay: microbe, parasite or virus in culture; format: cell-based; details: clinical isolate - animal; read-out: MIC P. aeruginosa
Method in brief: as §2

[11] = tested on: Staphylococcus aureus clinical isolate - animal; assay: microbe, parasite or virus in culture; format: cell-based
Method in brief: as §2

[12] = tested on: Staphylococcus aureus clinical isolate – animal, methicillin-resistant (MRSA); format: cell-based; details: clinical isolate – animal, methicillin-resistant
Method in brief: as §1

[13] = tested on: Staphylococcus aureus clinical isolate – animal, penicillin-resistant (PRSA); format: cell-based; details: clinical isolate – animal, penicillin-resistant (PRSA)
Method in brief: as §1

[14] = clinical isolate, MHB without cations, 5 x 10^5 CFU/mL, 35°C 20–24 hours, duplicate
[15] = clinical isolate, superscript value, cation-adjusted Mueller Hinton broth
[16] = clinical isolate, value in brackets, 99.9% reduction in CFU/mL

CC[C@H](C)[C@H](NC(=O)[C@H](CCCCN)NC(=O)CNC(=O)[C@H](CC(C)C)NC(=O)CNC(=O)[C@H](CCC(N)=O)NC(=O)CNC(=O)[C@H](CC(C)C)NC(=O)[C@@H]1CCCN1C(=O)[C@H](CCCCN)NC(=O)[C@H](CCSC)NC(=O)[C@H](CC(C)C)NC(=O)[C@H](CCCCN)NC(=O)[C@H](CCCCN)NC(=O)[C@H](CCCCN)NC(=O)CNC(=O)CNC(=O)[C@H](CCCNC(=N)N)NC(=O)[C@@H](N)CCCCN)C(=O)N[C@@H](CC(C)C)C(=O)N[C@@H](CCCCN)C(=O)N[C@@H](Cc1c[nH]cn1)C(=O)N[C@@H](Cc1ccccc1)C(=O)N[C@@H](CC(N)=O)C(=O)N[C@H](C(=O)N[C@@H](CC(=O)O)C(=O)N[C@@H](Cc1ccccc1)C(=O)N[C@@H](CS)C(=O)NCC(=O)N[C@@H](CC(N)=O)C(=O)N[C@@H](CS)C(=O)O)[C@@H](C)CC [MAP11] (H-KRGGKKKLMKPLGQGLGKILKHFNIDFCGNC-OH; N-terminus and C-terminus assumed)
>18.6 µM: MIC [1] | MIC [2] | MIC [3] | MIC [6] | MIC [10]
2 hours: Number of hours to cause a significant reduction in log CFU/mL of S. aureus ATCC (p < 0.05) (S. aureus ATCC 29213; 2x MIC)
9.3 µM: MIC ([7]; ATCC 25922, read-out: MIC E. coli ATCC) | MIC ([7]; ATCC 25922, read-out: MIC in the presence of cations E. coli ATCC) | MBC E. coli ([9]; clinical isolate - animal) | MIC ([9]; clinical isolate - animal) | MBC S. aureus ([11]; clinical isolate - animal) | MIC ([11]; clinical isolate - animal, read-out: MIC S. aureus) | MBC MRSA [12] | MIC MRSA [12]
64 µg/mL: MBC E. coli ATCC ([7]; value in brackets, 99.9% reduction in CFU/mL) | MIC in the presence of cations E. coli [9, 15]
4 hours: Number of hours to cause a significant reduction in log CFU/mL of S. aureus ATCC (p < 0.05) (S. aureus ATCC 29213; 0.5x MIC) | Number of hours to cause a significant reduction in log CFU/mL of S. aureus ATCC (p < 0.05) (S. aureus ATCC 29213; MIC)
18.6 µM: MBC E. coli ATCC ([7]; ATCC 25922) | MIC in the presence of cations E. coli ([9]; clinical isolate - animal)
16 µg/mL: MIC S. aureus ATCC ([8]; ATCC 29213) | MIC in the presence of cations S. aureus [11, 15]
Y (Antibacterial (MIC <64ug/mL)): Antibacterial (MIC <64ug/mL) [4]
N (Antifungal (MIC <64ug/mL)): Antifungal (MIC <64ug/mL) [5]
4.6 µM: MIC ([11]; clinical isolate - animal, read-out: MIC in the presence of cations S. aureus) | MBC PRSA [13] | MIC PRSA [13]
32 µg/mL: MIC E. coli ATCC ([7]; MHB without cations, 5 x 10^5 CFU/mL, 35°C 20–24 hours, duplicate) | MIC in the presence of cations E. coli ATCC ([7]; superscript value, cation-adjusted Mueller Hinton broth) | MIC in the presence of cations S. aureus ATCC ([8]; superscript value, cation-adjusted Mueller Hinton broth (calcium and magnesium)) | MBC S. aureus ATCC ([8]; value in brackets, 99.9% reduction in CFU/mL relative to starting inoculum) | MIC E. coli [9, 14] | MBC E. coli [9, 16] | MIC S. aureus [11, 14] | MBC S. aureus [11, 16]
